Test results taken from paper PMC6759494 (Tetrahedron, 2019).

Target: peptide deformylase (EcPDF) (Escherichia coli, UniProt P0A6K3)
Test: coupled colorimetric assay
Type: biochemical

Sequence of peptide deformylase (EcPDF) (P0A6K3 2-169): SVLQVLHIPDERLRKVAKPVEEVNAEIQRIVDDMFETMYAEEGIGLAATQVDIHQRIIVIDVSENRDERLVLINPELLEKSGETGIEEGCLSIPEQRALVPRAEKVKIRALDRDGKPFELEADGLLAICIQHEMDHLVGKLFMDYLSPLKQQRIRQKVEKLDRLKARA

| Molecule | % inhibition at 4 μM | inhibition at 4 µM (read-out: % inhibition at 4 μM) [%] |
| --- | --- | --- |
| C/C=C/c1c(O)c(O)cc2c1[C@@](C)(NC(=O)/C=C/C(=O)O)C(=O)O2 (racemic) [compound 1, (±)-fumimycin] | ~ 20 | – |
| CCCCC[C@H](CC(=O)NO)C(=O)N[C@H](C(=O)N1CCC[C@H]1CO)C(C)C [compound 2, actinonin] | – | ~95 |
| Dimethoxy-fumimycin hydroxamic acid [17f] | ~ 20 | – |
| Dimethoxy-fumimycin methyl ester [17b] | ~ 20 | – |
| Fumimycin Weinreb amide [17h] | ~ 16 | – |
